Values joined by “and” are separate entries in the source; they are usually repeats but may differ in a detail not shown here. Identical values can stand only once. Like-named read-outs stand apart in the source and are kept apart here.
Columns and labels:
[1] = molecular target: mannose-specific lectin concanavalin A (ConA) (Canavalia ensiformis, UniProt P02866); test: ELLA (Enzyme-Linked Lectin Assay): inhibition of the combination of yeast mannan and horse-radish peroxidase-labelled ConA; assay type: binding; details: for Relative affinity / Relative molar affinity: relative to Me-α-D-Glcp = 1
Protocol: The affinity of the ureido-, thioureido-, ureidocysteaminyl- and thioureidocysteaminyl-cyclodextrin dimers of the invention which incorporate glucide substituents for specific membrane lectins in vitro is evaluated according to the ELLA (“Enzyme-Linked Lectin Assay”) protocol. Numerous examples of application of this protocol can be found in the article by J. J. Lundquist and E. J. Toon in Chem. Rev. 2002, 102, pp. 555-578. This technique measures the ability of a soluble mono- or oligosaccharide ligand to inhibit the association between a complementary lectin and another reference ligand bound to a plastic support microplate. Thus, the ureido-, thioureido-, ureidocysteaminyl- and thioureidocysteaminyl-cyclodextrin dimers carrying α-D-mannopyranosyl substituents are recognized by concanavalin A or by the mannose-specific lectin of the macrophages, the derivatives with β-lactosyl substituents are recognized by the lactose-specific lectin of Arachys hypogaea or hepatocytes, and the derivatives comprising the tetrasaccharide sialyl-Lewis X substituent are recognized by the selectins of the endothelium involved in the inflammation method.
The affinity of compounds no. 5 to 8 for the mannose-specific lectin concanavalin A (ConA) was evaluated according to the test ELLA protocol. The concentration of compounds no. […] The IC50 values are inversely proportional to the respective affinities.
The microtitration plate cells (Nunc-Immuno™ plates MaxiSorp™) are charged with 100 μl of a yeast mannan stock solution (Sigma, […]) in a saline phosphate buffer solution (PBS; pH 7.3 containing Ca^2+ 0.1 mM and Mn^2+ 0.1 mM) overnight at ambient temperature. The cells are washed (3×300 μl) with a buffer solution containing 0.05% (v/v) Tween 20 (PBTS). This washing protocol is repeated after each incubation during the test. A bovine serum albumin solution (BSA, 1%) in PBS (150 μg/cell) is then added to the cells, followed by incubation for 1 h at 37° C. and then washing.
To determine the optimum lectin concentration for the inhibition studies, 100 μl of a series of Con A solutions labelled with 10^−1 to 10^−5 mg.ml^−1 horse-radish peroxidase in PBS is added to the cells charged with the mannan, followed by treating as indicated above. After incubation at 37° C. for 1 hour, the plates are washed (PBST) and a solution (50 μl) of the diammonium salt of 2,2′-azinobis(3-ethylbenzothiazoline-6-sulphonic) acid (ABTS, 1 mg in 4 ml) in citrate buffer is added (0.2 M; pH 4.0 with 0.015% of oxygenated water). The reaction is stopped after 20 minutes by adding 50 μl/cell sulphuric acid 1 M and the absorbances are measured at 415 nm using an ELISA reader. The sample cells contain the citrate-phosphate buffer. The concentration of lectin marked with peroxidase giving an absorbance value between 0.8 and 1.0 (typically between 10^−2 and 10^−3 mg/ml^−1) was used in the inhibition assays.
For inhibition assays, stock solutions of compounds no. 5 to 8 were used at a concentration of 5 to 7 mg/ml^−1 in PBS. In a series of experiments, ConA marked with horse-radish peroxidase of suitable concentration as indicated above (60 μl/cell) is added to the solutions of each compound (60 μl/cell) in PBS, double-diluted in sequence, in a Nunclon™(Delta) microtitration plate which is incubated at 37° C. for 1 hour. The solutions (100 μl/cell) are then transferred to a microtitration plate charged with mannan and treated as indicated above, then being incubated at 37° C. for 1 hour. The cells are washed (PBST) and ABTS solution added (50 μl/cell). After 20 minutes, the reaction is stopped (sulphuric acid) and the absorbances are measured.
The inhibition percentage is calculated by the formula: […]

[2] = solubility in water of the cyclodextrin (dimer) derivative; assay type: physicochemical
[3] = inclusion of Taxotere into the cyclodextrin dimer: solubility of Taxotere in sterile water; assay type: physicochemical
Protocol: (§1) Taxotere in the pure state is used to start with and 8.3 mg (9.7 μmol) of this product is dispersed in 1 ml of a solution containing 10 mmol.l^−1 of compound no. 3 in sterile water, then the obtained suspension is stirred at 70° C. until a clear solution is obtained which signals the complexation of the Taxotere.
as §1, with “6.6” for “8.3”, “(7.7” for “(9.7”, “8 mmol/l^−1” for “10 mmol.l^−1”, “6” for “3”
as §1, with “5.8” for “8.3”, “([…]” for “(9.7”, “7 mmol/l^−1” for “10 mmol.l^−1”, “6” for “3”

[4] = inhibition of ConA-HRP binding to yeast mannan fixed to microtitration plate, average of three independent experiments, read-out: IC50

Compound: CO[C@H]1O[C@H](CO)[C@@H](O)[C@H](O)[C@H]1O [Me-α-D-Glcp, methyl-α-D-glucopyranoside, reference compound]
- IC50 [1]: 865 µM
- Relative affinity [1]: 1
- Relative molar affinity [1]: 1

Compound: OC[C@H]1O[C@@H]2O[C@H]3[C@H](O)[C@@H](O)[C@@H](O[C@H]4[C@H](O)[C@@H](O)[C@@H](O[C@H]5[C@H](O)[C@@H](O)[C@@H](O[C@H]6[C@H](O)[C@@H](O)[C@@H](O[C@H]7[C@H](O)[C@@H](O)[C@@H](O[C@H]8[C@H](O)[C@@H](O)[C@@H](O[C@H]1[C@H](O)[C@H]2O)O[C@@H]8CO)O[C@@H]7CO)O[C@@H]6CO)O[C@@H]5CNC(=S)NCCN(CCNC(=S)NC[C@H]1O[C@@H]2O[C@H]5[C@H](O)[C@@H](O)[C@@H](O[C@H]6[C@H](O)[C@@H](O)[C@@H](O[C@H]7[C@H](O)[C@@H](O)[C@@H](O[C@H]8[C@H](O)[C@@H](O)[C@@H](O[C@H]9[C@H](O)[C@@H](O)[C@@H](O[C@H]%10[C@H](O)[C@@H](O)[C@@H](O[C@H]1[C@H](O)[C@H]2O)O[C@@H]%10CO)O[C@@H]9CO)O[C@@H]8CO)O[C@@H]7CO)O[C@@H]6CO)O[C@@H]5CO)CCNC(=S)Nc1ccccc1)O[C@@H]4CO)O[C@@H]3CO [compound no. 4, bis[2-[N′-(6^I-deoxycyclomaltoheptaos-6^I-yl)thioureido]ethyl] 2-(N′-phenylthioureido)ethylamine]
- solubility in water [2]: 115 g·L^−1 and 62 mmol·L^−1

Compound: bis[2-[N′-(6^I-deoxycyclomaltoheptaos-6^I-yl)thioureido]ethyl] 2- [N′-(α-D-mannopyranosyl)thioureido]ethylamine [compound no. 5]
- IC50 [1, 4]: 1290 µM
- Relative affinity [1]: 0.67
- Relative molar affinity [1]: 0.67

Compound: bis[2-[N′-(6^I-deoxycyclomaltoheptaos-6^I-yl)thioureido]ethyl] 2-(N′-methylthioureido)ethylamine [compound no. 3]
- solubility of the Taxotere in a solution of the compound ([3]; 10 mmol.l^−1 of compound in sterile water, stirred at 70° C. until clear): 8300 µg/mL
- stability of the Taxotere complex in solution once formed ([3]; ambient temperature, after complexation at 70° C.): remains in solution at ambient temperature

Compound: bis[2-[N′-(6^I-deoxycyclomaltoheptaos-6^I-yl)thioureido]ethyl] 2-[N′-[2-[bis[2-[N′-(α-D-mannopyranosyl)thioureido]ethyl] amino]ethyl]thioureido]ethyl amine [compound no. 7]
- IC50 [1, 4]: 265 µM
- Relative affinity [1]: 3.3
- Relative molar affinity [1]: 1.1

Compound: bis[2-[N′-(6^I-deoxycyclomaltoheptaos-6^I-yl)thioureido]ethyl] 2-[N′-[2-[bis[2-[N′-[tris(α-D-mannopyranosyloxymethyl) methyl]thioureido]ethyl] amino]ethyl]thioureido]ethylamine [compound no. 8]
- IC50 [1, 4]: 49 µM
- Relative affinity [1]: 17.7
- Relative molar affinity [1]: 2.9
- times more effectively recognized by ConA compared with the monovalent cyclodextrin dimer derivative, compound no. 5 ([1]; versus compound no. 5): up to 25 times

Compound: bis[2-[N′-(6^I-deoxycyclomaltoheptaos-6^I-yl)thioureido]ethyl] 2-[N′-[tris(2,3,4,6-tetra-O-acetyl-α-D-mannopyranosyloxy-methyl)methyl]thioureido]lethylamine [compound no. 6]
- stability of the Taxotere complex in solution once formed [3]: remains in solution at ambient temperature
- IC50 [1, 4]: 1130 µM
- Relative affinity [1]: 0.76
- Relative molar affinity [1]: 0.38

Source: US7781417B2, “Cyclodextrin dimers and derivatives thereof, methods for preparing them and their use, in particular, for the solubilizing pharmacologically active substances” (Centre National de la Recherche Scientifique, priority 2003, dated 2010)
